From US20260232767A1, “INTERLEUKIN-23 RECEPTOR ANTAGONIST PEPTIDES FOR USE IN THE TREATMENT OF PSORIASIS” (Janssen Pharmaceutica NV, priority 2023, published 2026)

Test system: subjects with moderate-to-severe plaque psoriasis
Assay: Safety, adverse events, Example 2 through Week 56
Assay type: in vivo, human
Conditions: through Week 56
Description: The LTE safety analysis was based on randomized participants in Example who entered the present long-term extension study and received at least one dose of study intervention (including a partial dose) during the study period.

[1] = Placebo → 100 mg QD after crossover

## CC(=O)NCCCC[C@@H]1NC(=O)[C@H](Cc2c[nH]c3c(C)cccc23)NC(=O)[C@H]([C@@H](C)O)NC(=O)[C@H](CC(N)=O)NC(=O)[C@@H](NC(C)=O)C(C)(C)SSC(C)(C)[C@@H](C(=O)N[C@@H](Cc2ccc(OCCN)cc2)C(=O)N[C@@H](Cc2ccc3ccccc3c2)C(=O)NC2(C(=O)N[C@@H](CCC(=O)O)C(=O)N[C@@H](CC(N)=O)C(=O)N[C@@H](Cc3cccnc3)C(=O)N(C)CC(N)=O)CCOCC2)NC1=O [IL-23 receptor antagonist peptide, Ac-[Pen]*-N-T-[W(7-Me)]-[Lys(Ac)]-[Pen]*-Phe[4-(2-aminoethoxy)]-[2-Nal]-[THP]-E-N-[3-Pal]-Sarc-NH2 (*[Pen]-[Pen]* formdisulfidebond)]
  Subjects with Mouth ulceration: 0
  Subjects with Tendonitis: 0
25 mg BID
  Subjects with 1 or more Adverse events: (78.0%)
  Subjects with 1 or more Adverse events: Alanine aminotransferase increased: (2.4%)
  Subjects with 1 or more Adverse events: Aspartate aminotransferase increased: (2.4%)
  Subjects with 1 or more Adverse events: Bronchitis: (4.9%)
  Subjects with 1 or more Adverse events: COVID-19: (22.0%)
  Subjects with 1 or more Adverse events: Diarrhea: (4.9%)
  Subjects with 1 or more Adverse events: Headache: (7.3%)
  Subjects with 1 or more Adverse events: Influenza: (7.3%)
  Subjects with 1 or more Adverse events: Nasopharyngitis: (19.5%)
  Subjects with 1 or more Adverse events: Upper respiratory tract infection: (7.3%)
  Subjects with 1 or more Adverse events: Urinary tract infection: (2.4%)
  Subjects with 1 or more Serious adverse events: (7.3%)
  Subjects with 1 or more Serious adverse events: Ligament injury: (2.4%)
  Subjects with 1 or more Serious adverse events: Tonsillar hypertrophy: (2.4%)
  Subjects with 1 or more Serious adverse events: Ventricular dysfunction: (2.4%)
  Subjects with 1 or more treatment-emergent adverse events leading to discontinuation of study agent: (4.9%)
25 mg QD
  Subjects with 1 or more Adverse events: (55.8%)
  Subjects with 1 or more Adverse events: Alanine aminotransferase increased: (2.3%)
  Subjects with 1 or more Adverse events: Arthralgia: (2.3%)
  Subjects with 1 or more Adverse events: Aspartate aminotransferase increased: (2.3%)
  Subjects with 1 or more Adverse events: Bronchitis: (4.7%)
  Subjects with 1 or more Adverse events: COVID-19: (14.0%)
  Subjects with 1 or more Adverse events: Cough: (2.3%)
  Subjects with 1 or more Adverse events: Diarrhea: (4.7%)
  Subjects with 1 or more Adverse events: Headache: (4.7%)
  Subjects with 1 or more Adverse events: Nasopharyngitis: (7.0%)
  Subjects with 1 or more Adverse events: Upper respiratory tract infection: (16.3%)
  Subjects with 1 or more Adverse events: Urinary tract infection: (4.7%)
  Subjects with 1 or more treatment-emergent adverse events leading to discontinuation of study agent: (7.0%)
50 mg QD
  Subjects with 1 or more Adverse events: (74.4%)
  Subjects with 1 or more Adverse events: Alanine aminotransferase increased: (2.3%)
  Subjects with 1 or more Adverse events: Arthralgia: (2.3%)
  Subjects with 1 or more Adverse events: Aspartate aminotransferase increased: (2.3%)
  Subjects with 1 or more Adverse events: Bronchitis: (9.3%)
  Subjects with 1 or more Adverse events: COVID-19: (14.0%)
  Subjects with 1 or more Adverse events: Cough: (4.7%)
  Subjects with 1 or more Adverse events: Diarrhea: (9.3%)
  Subjects with 1 or more Adverse events: Headache: (2.3%)
  Subjects with 1 or more Adverse events: Influenza: (2.3%)
  Subjects with 1 or more Adverse events: Nasopharyngitis: (30.2%)
  Subjects with 1 or more Adverse events: Upper respiratory tract infection: (7.0%)
  Subjects with 1 or more Adverse events: Urinary tract infection: (2.3%)
  Subjects with 1 or more Serious adverse events: (7.0%)
  Subjects with 1 or more Serious adverse events: Coronary artery disease: (2.3%)
  Subjects with 1 or more Serious adverse events: Foot deformity: (2.3%)
  Subjects with 1 or more Serious adverse events: Infected cyst: (2.3%)
  Subjects with 1 or more Serious adverse events: Non-cardiac chest pain: (2.3%)
  Subjects with 1 or more treatment-emergent adverse events leading to discontinuation of study agent: (4.7%)
100 mg BID
  Subjects with 1 or more Adverse events: (76.2%)
  Subjects with 1 or more Adverse events: Alanine aminotransferase increased: (9.5%)
  Subjects with 1 or more Adverse events: Arthralgia: (4.8%)
  Subjects with 1 or more Adverse events: Aspartate aminotransferase increased: (7.1%)
  Subjects with 1 or more Adverse events: COVID-19: (16.7%)
  Subjects with 1 or more Adverse events: Cough: (4.8%)
  Subjects with 1 or more Adverse events: Diarrhea: (2.4%)
  Subjects with 1 or more Adverse events: Headache: (2.4%)
  Subjects with 1 or more Adverse events: Influenza: (2.4%)
  Subjects with 1 or more Adverse events: Nasopharyngitis: (11.9%)
  Subjects with 1 or more Adverse events: Upper respiratory tract infection: (11.9%)
  Subjects with 1 or more Adverse events: Urinary tract infection: (4.8%)
  Subjects with 1 or more Serious adverse events: (2.4%)
  Subjects with 1 or more Serious adverse events: Uterine leiomyoma: (2.4%)
  Subjects with 1 or more treatment-emergent adverse events leading to discontinuation of study agent: (2.4%)
100 mg QD
  Subjects with 1 or more Adverse events: (72.1%)
  Subjects with 1 or more Adverse events: Arthralgia: (7.0%)
  Subjects with 1 or more Adverse events: COVID-19: (11.6%)
  Subjects with 1 or more Adverse events: Cough: (7.0%)
  Subjects with 1 or more Adverse events: Diarrhea: (2.3%)
  Subjects with 1 or more Adverse events: Headache: (11.6%)
  Subjects with 1 or more Adverse events: Influenza: (2.3%)
  Subjects with 1 or more Adverse events: Nasopharyngitis: (25.6%)
  Subjects with 1 or more Adverse events: Upper respiratory tract infection: (4.7%)
  Subjects with 1 or more Serious adverse events: (7.0%)
  Subjects with 1 or more Serious adverse events: COVID-19: (2.3%)
  Subjects with 1 or more Serious adverse events: Diverticulitis: (2.3%)
  Subjects with 1 or more Serious adverse events: Intervertebral disc protrusion: (2.3%)
  Subjects with 1 or more Serious adverse events: Suicide attempt: (2.3%)
  Subjects with 1 or more treatment-emergent adverse events leading to discontinuation of study agent: (4.7%)
Combined
  Subjects with 1 or more Adverse events: (70.4%)
  Subjects with 1 or more Adverse events: Alanine aminotransferase increased: (3.6%)
  Subjects with 1 or more Adverse events: Arthralgia: (3.2%)
  Subjects with 1 or more Adverse events: Aspartate aminotransferase increased: (2.8%)
  Subjects with 1 or more Adverse events: Bronchitis: (3.6%)
  Subjects with 1 or more Adverse events: COVID-19: (14.2%)
  Subjects with 1 or more Adverse events: Cough: (3.2%)
  Subjects with 1 or more Adverse events: Diarrhea: (4.5%)
  Subjects with 1 or more Adverse events: Headache: (4.9%)
  Subjects with 1 or more Adverse events: Influenza: (2.8%)
  Subjects with 1 or more Adverse events: Nasopharyngitis: (19.8%)
  Subjects with 1 or more Adverse events: Upper respiratory tract infection: (9.7%)
  Subjects with 1 or more Adverse events: Urinary tract infection: (3.2%)
  Subjects with 1 or more Serious adverse events: (4.5%)
  Subjects with 1 or more Serious adverse events: COVID-19: (0.4%)
  Subjects with 1 or more Serious adverse events: Cerebrovascular accident: (0.4%)
  Subjects with 1 or more Serious adverse events: Coronary artery disease: (0.4%)
  Subjects with 1 or more Serious adverse events: Diverticulitis: (0.4%)
  Subjects with 1 or more Serious adverse events: Foot deformity: (0.4%)
  Subjects with 1 or more Serious adverse events: Infected cyst: (0.4%)
  Subjects with 1 or more Serious adverse events: Intervertebral disc protrusion: (0.4%)
  Subjects with 1 or more Serious adverse events: Ligament injury: (0.4%)
  Subjects with 1 or more Serious adverse events: Non-cardiac chest pain: (0.4%)
  Subjects with 1 or more Serious adverse events: Suicide attempt: (0.4%)
  Subjects with 1 or more Serious adverse events: Tonsillar hypertrophy: (0.4%)
  Subjects with 1 or more Serious adverse events: Uterine leiomyoma: (0.4%)
  Subjects with 1 or more Serious adverse events: Ventricular dysfunction: (0.4%)
  Subjects with 1 or more treatment-emergent adverse events leading to discontinuation of study agent: (4.0%)
[1]
  Subjects with 1 or more Adverse events: (65.7%)
  Subjects with 1 or more Adverse events: Alanine aminotransferase increased: (5.7%)
  Subjects with 1 or more Adverse events: Arthralgia: (2.9%)
  Subjects with 1 or more Adverse events: Aspartate aminotransferase increased: (2.9%)
  Subjects with 1 or more Adverse events: Bronchitis: (2.9%)
  Subjects with 1 or more Adverse events: COVID-19: (5.7%)
  Subjects with 1 or more Adverse events: Diarrhea: (2.9%)
  Subjects with 1 or more Adverse events: Influenza: (2.9%)
  Subjects with 1 or more Adverse events: Nasopharyngitis: (25.7%)
  Subjects with 1 or more Adverse events: Upper respiratory tract infection: (11.4%)
  Subjects with 1 or more Adverse events: Urinary tract infection: (5.7%)
  Subjects with 1 or more Serious adverse events: (2.9%)
  Subjects with 1 or more Serious adverse events: Cerebrovascular accident: (2.9%)
